Results from patent publication US4016280A, “4,4-Diarylpiperidine compositions and use” (Byk Gulden Lomberg Chemische Fabrik GmbH, priority 1969, dated 1977).
Read-outs that look alike come from different tables or passages of the source.

Tests used:
Exophthalmus = details: in vivo
Method: (§1) As stated above, the compounds of formula I have advantageous central nervous system stimulating properties. Side-effects, as they are encountered on administration of amphetamine-type stimulants, are produced to a much lesser extent by the 4,4-diphenylpiperidine compounds, if at all. […] The tests were carried out according to known and accepted pharmacological standard test methods.
f Exophthalmus Absent Present

[1] = Acute toxicity in the albino mouse; details: mouse, in vivo, Table 2
Method: as §1
(§2) a Acute toxicity 150 mg./kg. 100 mg./kg.

albino mouse [2] = experiment: Antagonism in the albino mouse of perphenazine catalepsy; type: in vivo; details: for ED50: Mus musculus, po, perphenazine 10 mg/kg p.o., drug per os, Examples 28, 29: 50 to 300 mg/kg; for Anticataleptic action (in words): mouse, in vivo
Method: (§3) Antagonism in the albino mouse
(§4) Com- Preventive Curative catalepsy
(§5) of tion dation p.o.) i.p.)
(§6) *drugs administered per os
(§7) **administered in doses from 50 to 300 mg/kg

albino mouse [3] = experiment: Antagonism in the albino mouse of tremorine tremor; type: in vivo; details: tremorine 15 mg/kg i.p., drug per os, Examples 28, 29: 50 to 300 mg/kg
Method: as §3, §5, §6, §7

albino mouse [4] = experiment: Saliva secretion; type: in vivo
Method: as §1
No secretion Pronounced

albino mouse [5] = experiment: Locomotory activity (restlessness in movements); type: in vivo; details: albino mouse 5 mg/kg. perorally
Method: as §1

Tachyphylaxis = details: in vivo
Method: as §1
g Tachyphylaxis None Pronounced

[6] = Potentiating effect on noradrenaline; details: in vivo
Method: as §1

albino mouse [7] = experiment: Antagonism in the albino mouse of reserpine (preventive and curative ptosis/sedation); type: in vivo; details: reserpine 2mg/kg sc.; for ED50: Mus musculus, po
Method: as §3, §4, §5, §6, §7

[8] = Increase in blood pressure; type: in vivo; details: rats and dogs
Method: as §1
pressure (rats and increase

albino mouse [9] = experiment: General behaviour of the albino mouse with different doses; type: in vivo; details: for Locomotory activity / Restlessness Stereotype / Salivation / Vigilance / Vigilance of the animal (in words): albino mouse; for Locomotory activity / Restlessness Stereotype / Salivation / Vigilance: different doses per os, Examples 28, 29: 50 to 300 mg/kg; for Sedation of animals (in words): mouse, in vivo
Method: Acute toxi- General behaviour of the albino
city in the mouse with different doses*
as §6, §7

Neuroleptic effects = details: in vivo
Source text: (§8) These compounds are useful as neuroleptics.

albino mouse [10] = experiment: Acute toxicity in the albino mouse; details: mouse, in vivo
Method: as §1, §2

[11] = Potentiation of the effect of hexobarbital; details: in vivo
Source text: as §8

[12] = po, p.o., read-out: Acute toxicity in the albino mouse LD50 p.o.
[13] = doses from 50 to 300 mg/kg per os
[14] = 18 h, doses from 50 to 300 mg/kg per os
[15] = 18 h, doses from 50 to 300 mg/kg per os, read-out: Reserpine antagonism, Preventive Sedation ED50, 18 h
[16] = drug per os, Examples 28, 29: 50 to 300 mg/kg

| SMILES | LD50 [1, 12] [mg/kg] | ED50 (albino mouse [2]) [mg/kg] | Locomotory activity (albino mouse [9]) | Restlessness Stereotype (albino mouse [9]) | Salivation (albino mouse [9]) | Vigilance (albino mouse [9]) | Neuroleptic effects (in words) (Neuroleptic effects) | Acute toxicity (in words) (albino mouse [10]) | Anticataleptic action (in words) (albino mouse [2]) | Effect on hexobarbital (in words) [11] | Tremorine tremor antagonism ED50 (albino mouse [3]) | Reserpine antagonism, Preventive Sedation ED50, 3 h (albino mouse [7]; [13]) | Reserpine antagonism, Preventive ptosis ED50, 3 h (albino mouse [7]; [13]) | Reserpine antagonism, Preventive ptosis ED50, 18 h (albino mouse [7]; [14]) | ED50 (albino mouse [7]; [15]) [mg/kg] | Reserpine antagonism, Curative Sedation ED50 (albino mouse [7]; [16]) | Reserpine antagonism, Curative ptosis ED50 (albino mouse [7]; [16]) | Vigilance of the animal (in words) (albino mouse [9]) | Sedation of animals (in words) (albino mouse [9]) | other results |
| --- | --- | --- | --- | --- | --- | --- | --- | --- | --- | --- | --- | --- | --- | --- | --- | --- | --- | --- | --- | --- |
| CC(C)N1CCC(c2ccccc2)(c2ccccc2)CC1 [Example 4, 1-Isopropyl-4,4-diphenylpiperidine] | 150 | 7 | (+) | .phi. (no effect) | .phi. (no effect) | ++ |  |  |  |  |  |  |  |  |  |  |  |  |  | Exophthalmus (Exophthalmus): Absent; LD50 ([1]; iv, i.v., read-out: Acute toxicity in the albino mouse LD50 i.v.): 20 mg/kg; ED50 (albino mouse [3]; Mus musculus, po): 1.5 mg/kg; Saliva secretion (albino mouse [4]): No secretion; Locomotory activity (restlessness in movements), increase by (albino mouse [5]): 20%; Tachyphylaxis (Tachyphylaxis): None; Potentiating effect on noradrenaline [6]: Present; ED50 (albino mouse [7]; drug per os, Examples 28, 29: 50 to 300 mg/kg, read-out: Reserpine antagonism, Curative Sedation ED50): 13 mg/kg; ED50 (albino mouse [7]; drug per os, Examples 28, 29: 50 to 300 mg/kg, read-out: Reserpine antagonism, Curative ptosis ED50): > 50 mg/kg; ED50 (albino mouse [7]; drug per os, read-out: Reserpine antagonism, Preventive Sedation ED50): 3 mg/kg; ED50 (albino mouse [7]; drug per os, read-out: Reserpine antagonism, Preventive ptosis ED50): 16 mg/kg; Increase in blood pressure [8]: Slight increase |
| O=C(CCCN1CCC(c2ccccc2)(c2ccccc2)CC1)c1ccc(F)cc1 [Example 28, 1-[3-(p-Fluorobenzoyl)propyl]-4,4-diphenylpiperidine] | 3800 | 50 | - (decrease) | .phi. (no effect) | .phi. (no effect) | - (decrease) | exhibit neuroleptic effects | very low acute toxicity | exhibit anticataleptic action | potentiate the effect of hexobarbital | .phi. (no effect) | .phi. (no effect) | .phi. (no effect) | .phi. (no effect) | 300 | .phi. (no effect) | .phi. (no effect) | somewhat reduce vigilance | induce sedation |  |
| O=C(CCCN1CCC(c2ccccc2)(c2ccccc2)CC1)c1ccccc1 [Example 29, 1-(3-Benzoylpropyl)-4,4-diphenylpiperidine] |  | 50 | - (decrease) | .phi. (no effect) | .phi. (no effect) | - (decrease) | exhibit neuroleptic effects | very low acute toxicity | exhibit anticataleptic action | potentiate the effect of hexobarbital | .phi. (no effect) | .phi. (no effect) | .phi. (no effect) | .phi. (no effect) | 100 | .phi. (no effect) | .phi. (no effect) | somewhat reduce vigilance | induce sedation |  |
